According to article PMC11738990, “A small-molecule TNIK inhibitor targets fibrosis in preclinical and clinical models” (Nature Biotechnology, 2024):
Where two headings read alike, the source gives them in different places.

System: A549 cells
Conditions: for E-Cadherin/GAPDH normalized: DMSO=1; for N-Cadherin/GAPDH normalized / Smad2/3/GAPDH normalized / p- Smad2/3/GAPDH normalized / b-catenin/ HDAC2 normalized / b-catenin/ Histone 3 normalized / b-catenin/ tubulin normalized: TGF-β=1; for P65/GAPDH normalized / p-P65/GAPDH normalized: TGF-β+TNF-a=1
[1] = 0.1 μM, TGF-β+TNF-a group, Batch 1
[2] = 0.1 μM, TGF-β+TNF-a group, Batch 2
[3] = 0.1 μM, TGF-β+TNF-a group, Batch 3
[4] = 0.3 μM, TGF-β+TNF-a group, Batch 1
[5] = 0.3 μM, TGF-β+TNF-a group, Batch 2
[6] = 0.3 μM, TGF-β+TNF-a group, Batch 3
[7] = 1 μM, TGF-β+TNF-a group, Batch 1
[8] = 1 μM, TGF-β+TNF-a group, Batch 2
[9] = 1 μM, TGF-β+TNF-a group, Batch 3
[10] = 3 μM, TGF-β+TNF-a group, Batch 1
[11] = 3 μM, TGF-β+TNF-a group, Batch 2
[12] = 3 μM, TGF-β+TNF-a group, Batch 3

Structure (SMILES): CC(C)n1cnc(-c2ccc(F)cc2)c1-c1nc(C(=O)Nc2ccc(N3CCN(C)CC3)cc2)c[nH]1 [INS018_055, 2-[4-(4-fluorophenyl)-1-(prop-2-yl)imidazol-5-yl]-N-[4-(4-methylhexahydropyrazin-1-yl)phenyl]-1H-imidazole-4-carboxamide]
- E-Cadherin/GAPDH normalized (0.1 μM, Batch 1): 0.882
- N-Cadherin/GAPDH normalized (0.1 μM, Batch 1): 0.7004
- Smad2/3/GAPDH normalized (0.1 μM, Batch 1): 1.169
- p- Smad2/3/GAPDH normalized (0.1 μM, Batch 1): 0.1198
- E-Cadherin/GAPDH normalized (0.1 μM, Batch 2): 0.7553
- N-Cadherin/GAPDH normalized (0.1 μM, Batch 2): 0.5859
- Smad2/3/GAPDH normalized (0.1 μM, Batch 2): 1.386
- b-catenin/ HDAC2 normalized (0.1 μM, Batch 2): 0.9011
- b-catenin/ Histone 3 normalized (0.1 μM, Batch 2): 1.011
- b-catenin/ tubulin normalized (0.1 μM, Batch 2): 0.7986
- p- Smad2/3/GAPDH normalized (0.1 μM, Batch 2): 0.1997
- E-Cadherin/GAPDH normalized (0.1 μM, Batch 3): 1.033
- N-Cadherin/GAPDH normalized (0.1 μM, Batch 3): 0.3543
- Smad2/3/GAPDH normalized (0.1 μM, Batch 3): 0.9832
- b-catenin/ HDAC2 normalized (0.1 μM, Batch 3): 0.6944
- b-catenin/ Histone 3 normalized (0.1 μM, Batch 3): 1.35
- b-catenin/ tubulin normalized (0.1 μM, Batch 3): 1.101
- p- Smad2/3/GAPDH normalized (0.1 μM, Batch 3): 0.212
- b-catenin/ HDAC2 normalized (0.1 μM, Batch 4): 1.905
- b-catenin/ Histone 3 normalized (0.1 μM, Batch 4): 0.9078
- b-catenin/ tubulin normalized (0.1 μM, Batch 4): 1.377
- P65/GAPDH normalized (0.1 μM, TGF-β group, Batch 1): 0.4666
- p-P65/GAPDH normalized (0.1 μM, TGF-β group, Batch 1): 0.1387
- P65/GAPDH normalized (0.1 μM, TGF-β group, Batch 2): 0.8513
- p-P65/GAPDH normalized (0.1 μM, TGF-β group, Batch 2): 0.05722
- P65/GAPDH normalized (0.1 μM, TGF-β group, Batch 3): 0.4658
- p-P65/GAPDH normalized (0.1 μM, TGF-β group, Batch 3): 0.04967
- P65/GAPDH normalized [1]: 0.668
- p-P65/GAPDH normalized [1]: 0.6884
- P65/GAPDH normalized [2]: 0.75
- p-P65/GAPDH normalized [2]: 0.7416
- P65/GAPDH normalized [3]: 0.4563
- p-P65/GAPDH normalized [3]: 0.5057
- E-Cadherin/GAPDH normalized (0.3 μM, Batch 1): 1.52
- N-Cadherin/GAPDH normalized (0.3 μM, Batch 1): 0.1615
- Smad2/3/GAPDH normalized (0.3 μM, Batch 1): 1.047
- p- Smad2/3/GAPDH normalized (0.3 μM, Batch 1): 0.03
- E-Cadherin/GAPDH normalized (0.3 μM, Batch 2): 1.01
- N-Cadherin/GAPDH normalized (0.3 μM, Batch 2): 0.2158
- Smad2/3/GAPDH normalized (0.3 μM, Batch 2): 1.249
- b-catenin/ HDAC2 normalized (0.3 μM, Batch 2): 0.8061
- b-catenin/ Histone 3 normalized (0.3 μM, Batch 2): 0.5919
- b-catenin/ tubulin normalized (0.3 μM, Batch 2): 0.4991
- p- Smad2/3/GAPDH normalized (0.3 μM, Batch 2): 0.1456
- E-Cadherin/GAPDH normalized (0.3 μM, Batch 3): 0.9712
- N-Cadherin/GAPDH normalized (0.3 μM, Batch 3): 0.1387
- Smad2/3/GAPDH normalized (0.3 μM, Batch 3): 1.033
- b-catenin/ HDAC2 normalized (0.3 μM, Batch 3): 0.9297
- b-catenin/ Histone 3 normalized (0.3 μM, Batch 3): 0.5389
- b-catenin/ tubulin normalized (0.3 μM, Batch 3): 1.411
- p- Smad2/3/GAPDH normalized (0.3 μM, Batch 3): 0.1442
- b-catenin/ HDAC2 normalized (0.3 μM, Batch 4): 0.672
- b-catenin/ Histone 3 normalized (0.3 μM, Batch 4): 0.7931
- b-catenin/ tubulin normalized (0.3 μM, Batch 4): 1.498
- P65/GAPDH normalized (0.3 μM, TGF-β group, Batch 1): 0.4013
- p-P65/GAPDH normalized (0.3 μM, TGF-β group, Batch 1): 0.07454
- P65/GAPDH normalized (0.3 μM, TGF-β group, Batch 2): 0.8627
- p-P65/GAPDH normalized (0.3 μM, TGF-β group, Batch 2): 0.05473
- P65/GAPDH normalized (0.3 μM, TGF-β group, Batch 3): 0.4505
- p-P65/GAPDH normalized (0.3 μM, TGF-β group, Batch 3): 0.04515
- P65/GAPDH normalized [4]: 0.6352
- p-P65/GAPDH normalized [4]: 0.6859
- P65/GAPDH normalized [5]: 0.8628
- p-P65/GAPDH normalized [5]: 0.7296
- P65/GAPDH normalized [6]: 0.342
- p-P65/GAPDH normalized [6]: 0.3802
- E-Cadherin/GAPDH normalized (1 μM, Batch 1): 1.5017
- N-Cadherin/GAPDH normalized (1 μM, Batch 1): 0.1538
- Smad2/3/GAPDH normalized (1 μM, Batch 1): 1.22
- p- Smad2/3/GAPDH normalized (1 μM, Batch 1): 0.02816
- E-Cadherin/GAPDH normalized (1 μM, Batch 2): 1.0948
- N-Cadherin/GAPDH normalized (1 μM, Batch 2): 0.1737
- Smad2/3/GAPDH normalized (1 μM, Batch 2): 1.233
- b-catenin/ HDAC2 normalized (1 μM, Batch 2): 0.9055
- b-catenin/ Histone 3 normalized (1 μM, Batch 2): 0.7183
- b-catenin/ tubulin normalized (1 μM, Batch 2): 0.408
- p- Smad2/3/GAPDH normalized (1 μM, Batch 2): 0.1116
- E-Cadherin/GAPDH normalized (1 μM, Batch 3): 1.05
- N-Cadherin/GAPDH normalized (1 μM, Batch 3): 0.09916
- Smad2/3/GAPDH normalized (1 μM, Batch 3): 1.054
- b-catenin/ HDAC2 normalized (1 μM, Batch 3): 0.9651
- b-catenin/ Histone 3 normalized (1 μM, Batch 3): 0.7434
- b-catenin/ tubulin normalized (1 μM, Batch 3): 0.8806
- p- Smad2/3/GAPDH normalized (1 μM, Batch 3): 0.1186
- b-catenin/ HDAC2 normalized (1 μM, Batch 4): 1.855
- b-catenin/ Histone 3 normalized (1 μM, Batch 4): 0.679
- b-catenin/ tubulin normalized (1 μM, Batch 4): 1.374
- P65/GAPDH normalized (1 μM, TGF-β group, Batch 1): 0.3482
- p-P65/GAPDH normalized (1 μM, TGF-β group, Batch 1): 0.05447
- P65/GAPDH normalized (1 μM, TGF-β group, Batch 2): 0.9166
- p-P65/GAPDH normalized (1 μM, TGF-β group, Batch 2): 0.06504
- P65/GAPDH normalized (1 μM, TGF-β group, Batch 3): 0.4988
- p-P65/GAPDH normalized (1 μM, TGF-β group, Batch 3): 0.05557
- P65/GAPDH normalized [7]: 0.397
- p-P65/GAPDH normalized [7]: 0.497
- P65/GAPDH normalized [8]: 0.7304
- p-P65/GAPDH normalized [8]: 0.6585
- P65/GAPDH normalized [9]: 0.3751
- p-P65/GAPDH normalized [9]: 0.3266
- E-Cadherin/GAPDH normalized (3 μM, Batch 1): 1.832
- N-Cadherin/GAPDH normalized (3 μM, Batch 1): 0.1802
- Smad2/3/GAPDH normalized (3 μM, Batch 1): 1.447
- p- Smad2/3/GAPDH normalized (3 μM, Batch 1): 0.01636
- E-Cadherin/GAPDH normalized (3 μM, Batch 2): 1.252
- N-Cadherin/GAPDH normalized (3 μM, Batch 2): 0.1613
- Smad2/3/GAPDH normalized (3 μM, Batch 2): 1.278
- b-catenin/ HDAC2 normalized (3 μM, Batch 2): 1.403
- b-catenin/ Histone 3 normalized (3 μM, Batch 2): 0.21
- b-catenin/ tubulin normalized (3 μM, Batch 2): 0.2321
- p- Smad2/3/GAPDH normalized (3 μM, Batch 2): 0.09113
- E-Cadherin/GAPDH normalized (3 μM, Batch 3): 1.09
- N-Cadherin/GAPDH normalized (3 μM, Batch 3): 0.0841
- Smad2/3/GAPDH normalized (3 μM, Batch 3): 1.0906
- b-catenin/ HDAC2 normalized (3 μM, Batch 3): 0.958
- b-catenin/ Histone 3 normalized (3 μM, Batch 3): 0.258
- b-catenin/ tubulin normalized (3 μM, Batch 3): 1.067
- p- Smad2/3/GAPDH normalized (3 μM, Batch 3): 0.09865
- b-catenin/ HDAC2 normalized (3 μM, Batch 4): 2.079
- b-catenin/ Histone 3 normalized (3 μM, Batch 4): 0.1136
- b-catenin/ tubulin normalized (3 μM, Batch 4): 1.238
- P65/GAPDH normalized (3 μM, TGF-β group, Batch 1): 0.5411
- p-P65/GAPDH normalized (3 μM, TGF-β group, Batch 1): 0.07665
- P65/GAPDH normalized (3 μM, TGF-β group, Batch 2): 0.9083
- p-P65/GAPDH normalized (3 μM, TGF-β group, Batch 2): 0.116
- P65/GAPDH normalized (3 μM, TGF-β group, Batch 3): 0.5638
- p-P65/GAPDH normalized (3 μM, TGF-β group, Batch 3): 0.08352
- P65/GAPDH normalized [10]: 0.3919
- p-P65/GAPDH normalized [10]: 0.3522
- P65/GAPDH normalized [11]: 0.5755
- p-P65/GAPDH normalized [11]: 0.6038
- P65/GAPDH normalized [12]: 0.3478
- p-P65/GAPDH normalized [12]: 0.3112
